Like-named read-outs stand apart in the source and are kept apart here.
Tests used:
[1] = test system: IL-1β production in human peripheral blood mononuclear cells (PBMCs); assay: inhibition of LPS-stimulated IL-1β production in human PBMCs (ELISA); type: cell-based; conditions: LPS stimulated overnight, mature IL-1β by ELISA
From the text: (§1) Further evidence that compounds of Formula I are inhibitors of ICE is provided by their ability to inhibit IL-1β production in human peripheral blood mononuclear cells (PBMCs) as described herein. PBMCs are isolated from heparinized blood by centrifugation over a ficoll cushion, then washed three times with phosphate-buffered saline. PBMCs are suspended in a medium containing RPMI 1640 with glutamine, penicillin, streptomycin and 2% human AB serum, then plated at 10^6 cells per well in 96 well flat bottom plates. PBMCs are stimulated overnight with 10 ngmL of lipopolysaccharide (LPS, E. coli strain 0111:B4; Calbiochem) in the presence or absence of a compound of Formulas I or II. Medium is harvested and the level of mature IL-1β was determined using an ELISA kit from R & D Systems. Cells were cultured for an additional 4 hours in the presence of 3-(4,5-dimethylthiazol-2-yl)-2,5-diphenyltetrazolium bromide (MTT) to determine viability.

[2] = biological target: T1, ICE (interleukin-1β converting enzyme) (Homo sapiens, UniProt P29466); assay: ICE inhibition, Ki, fluorescence assay with Ac-Tyr-Val-Ala-Asp-AMC; type: biochemical; conditions: 15 μM substrate Ac-Tyr-Val-Ala-Asp-AMC; 0.24 nM ICE; reversible, competitive model
T1 sequence (P29466 120-297 limits assumed): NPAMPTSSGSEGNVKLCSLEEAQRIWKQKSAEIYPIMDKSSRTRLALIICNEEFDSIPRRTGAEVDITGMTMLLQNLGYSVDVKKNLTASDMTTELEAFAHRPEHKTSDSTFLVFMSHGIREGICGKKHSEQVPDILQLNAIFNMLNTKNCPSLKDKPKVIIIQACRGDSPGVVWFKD
T1 sequence (P29466 317-404 limits assumed): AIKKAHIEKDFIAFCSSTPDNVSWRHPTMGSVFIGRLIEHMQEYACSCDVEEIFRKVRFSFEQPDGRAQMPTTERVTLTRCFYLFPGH
Method: Substrate hydrolysis is monitored for 300 seconds by observing the fluorescence of released AMC using excitation at 380 nm and emission at 460 nm. Mean rates of substrate hydrolysis are evaluated by linear-regression analysis of the fluorescence vs time traces. […] ICE Colorimetric Dose-Response (IC50) Assay

[3] = biological target: T1, ICE (interleukin-1β converting enzyme); assay: ICE Colorimetric Dose-Response (IC50) Assay; type: biochemical; conditions: 50 μM Ac-Tyr-Val-Ala-Asp-pNA, 60 min preincubation, pH 7.5, 25° C.
Method: Substrate hydrolysis is monitored for 300 seconds by observing the fluorescence of released AMC using excitation at 380 nm and emission at 460 nm. Mean rates of substrate hydrolysis are evaluated by linear-regression analysis of the fluorescence vs time traces. […] ICE Colorimetric Dose-Response (IC50) Assay Diluted inhibitor stocks are prepared by two-fold serial dilution from a primary stock whose concentration is selected (based on screening results or on prior attempts at IC50 evaluation) to achieve approximately 95% inhibition in the most concentrated well. Aliquots of each dilution are transferred to a microtitre plate in triplicate. […] The activated enzyme is then aliquoted into wells containing inhibitor or vehicle, and the plate is preincubated for 60 minutes at ambient temperature. Substrate ([…]) is added to each well to a final concentration of 50 μM, and plates are placed in the microtitre plate-reader thermostated to 25° C. Beginning 5 minutes after addition of substrate, absorbance (405 nm) of wells is monitored for 1 hour, and activity is calculated as the mean rate of change in absorbance during this interval.

Ich-2 = biological target: T2, Ich-2 (Homo sapiens, UniProt P49662); assay: Ich-2 Colorimetric Dose-Response (IC50) Assay; type: biochemical; conditions: 64 nM enzyme, 60 μM Ac-Leu-Glu-Val-Asp-pNA
T2 sequence (P49662 81-270 limits assumed): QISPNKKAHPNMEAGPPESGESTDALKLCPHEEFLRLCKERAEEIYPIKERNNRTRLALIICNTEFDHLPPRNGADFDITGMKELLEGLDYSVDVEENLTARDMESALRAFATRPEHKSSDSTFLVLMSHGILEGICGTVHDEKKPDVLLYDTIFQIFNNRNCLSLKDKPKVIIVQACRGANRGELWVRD
T2 sequence (P49662 290-377 limits assumed): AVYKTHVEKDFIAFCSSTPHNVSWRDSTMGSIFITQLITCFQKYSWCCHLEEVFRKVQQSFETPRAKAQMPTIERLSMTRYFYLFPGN
Method: Diluted inhibitor stocks are prepared by two-fold serial dilution from a primary stock whose concentration is selected (based on screening results or on prior attempts at IC50 evaluation) to achieve approximately 95% inhibition in the most concentrated well. Aliquots of each dilution are transferred to a microtitre plate in triplicate.
ICE enzyme is diluted to approximately 24 nM in HGE buffer (100 mM Hepes pH 7.5, 0.5 mM EDTA, 20% glycerol, 0.1% Bovine Serum Albumin (BSA), and activated by adding dithiothreitol (DTT) to a final concentration of 5 mM. The activated enzyme is then aliquoted into wells containing inhibitor or vehicle, and the plate is preincubated for 60 minutes at ambient temperature. Substrate (Ac-Tyr-Val-Ala-Asp-pNA) is added to each well to a final concentration of 50 μM, and plates are placed in the microtitre plate-reader thermostated to 25° C. Beginning 5 minutes after addition of substrate, absorbance (405 nm) of wells is monitored for 1 hour, and activity is calculated as the mean rate of change in absorbance during this interval.
Ich-2 Colorimetric Dose-Response (IC50 Assay
Inhibition of Ich-2 enzyme is assayed as described above for ICE, except that enzyme is used at 64 nM, and 60 μM of the Ich-2-specific substrate Ac-Leu-Glu-Val-Asp-pNA is used instead of the ICE substrate Ac-Tyr-Val-Ala-Asp-pNA.

PBMC viability (MTT) = type: cell-based; conditions: human PBMCs, additional 4 hours, read-out: PBMC TC50
From the text: as §1

O=C(O)CC(NC(=O)OCc1ccccc1)C(=O)CONC(=O)Cc1ccccc1 (centres unmarked) [Example 1, 3-Benzyloxycarbonylamino-4-oxo-5-phenylacetylaminooxy-pentanoic acid]
IC50 ([1]; PBMC): 817 µM | Ki [2]: 79 µM | IC50 [3]: 260 µM

O=C(O)C[C@H](NC(=O)OCc1ccccc1)C(=O)CON1CCCC1=O [Example 2, 3-Benzyloxycarbonylamino-4-oxo-5-(2-oxo-pyrrolidin-1-yloxy)-pentanoic acid]
Ki [2]: 87 µM | IC50 [3]: 397 µM

O=C(O)C[C@H](NC(=O)OCc1ccccc1)C(=O)CON1C(=O)C2C3C=CC(O3)C2C1=O (some centres unmarked) [Example 3, 3-Benzyloxycarbonylamino-5-(3,5-dioxo-10-oxa-4-aza-tricyclo[5.2.1.0^2,6]dec-8-en-4-yloxy)-4-oxo-pentanoic acid]
IC50 (Ich-2): 0.1 µM | CC50 at 4 h (PBMC viability (MTT)): 1000 µM | IC50 ([1]; PBMC): 1000 µM | Ki [2]: 2.1 µM | IC50 [3]: 0.46 µM

O=C(O)CC(NC(=O)OCc1ccccc1)C(=O)CON1C(=O)Cc2ccccc21 (centres unmarked) [Example 4, 3-Benzyloxycarbonylamino-5-(2-oxo-2,3-dihydro-indol-1-yloxy)-4-oxo-pentannic acid]
IC50 (Ich-2): 0.079 µM | CC50 at 4 h (PBMC viability (MTT)): 1000 µM | IC50 ([1]; PBMC): 1000 µM | Ki [2]: 1.6 µM | IC50 [3]: 3.1 µM

COC(=O)CC1CCCC2CC(=O)N(OCC(=O)[C@H](CC(=O)O)NC(=O)OCc3ccccc3)C12 (some centres unmarked) [Example 5, 3-Benzyloxycarbonylamino-5-(7-methoxycarbonylmethyl-2-oxo-octahydro-indol-1-yloxy)-4-oxo-pentanoic acid]
IC50 (Ich-2): 34 µM | IC50 ([1]; PBMC): 883 µM | Ki [2]: 15 µM | IC50 [3]: 80 µM

O=C(O)CC(NC(=O)OCc1ccccc1)C(=O)CON1C(=O)CC2CCCCC21 (centres unmarked) [Example 6]
Ki [2]: 9.2 µM | IC50 [3]: 37 µM

COC(=O)CC1CCCC2CC(=O)N(OCC(=O)C(CC(=O)O)NC(=O)C(C)NC(=O)C(NC(=O)OCc3ccccc3)C(C)C)C12 (centres unmarked) [Example 7]
IC50 (Ich-2): 0.14 µM | IC50 ([1]; read-out: PBMC IC50): 4.8 µM | Ki [2]: 0.007 µM | IC50 [3]: 0.026 µM

CC(NC(=O)C(NC(=O)OCc1ccccc1)C(C)C)C(=O)NC(CC(=O)O)C(=O)CON1C(=O)Cc2ccccc21 (centres unmarked) [Example 8, 3-[2-(2-benzyloxicarbonylamino-3-methyl-butyrylamino)-propionylamino]-4-oxo-5-(2-oxo-2,3-dihydro-indol-1-yloxy)-pentanoic acid]
IC50 (Ich-2): 0.005 µM | IC50 ([1]; PBMC): 3 µM | Ki [2]: 0.002 µM | IC50 [3]: 0.003 µM
